Laboratory results reported in patent US20110098325A1, “PYRIDINE BENZAMIDES AND PYRAZINE BENZAMIDES USED AS PKD INHIBITORS” (CANCER RESEARCH TECHNOLOGY LIMITED, priority 2006, published 2011).

Biological target: T1, human full length PKD2 (Homo sapiens, UniProt Q9BZL6)
T1 construct: human full length PKD2 at ˜100 μg/mL was purchased from Upstate Ltd; purchased Upstate Ltd 14-506
T1 sequence (Q9BZL6 1-878): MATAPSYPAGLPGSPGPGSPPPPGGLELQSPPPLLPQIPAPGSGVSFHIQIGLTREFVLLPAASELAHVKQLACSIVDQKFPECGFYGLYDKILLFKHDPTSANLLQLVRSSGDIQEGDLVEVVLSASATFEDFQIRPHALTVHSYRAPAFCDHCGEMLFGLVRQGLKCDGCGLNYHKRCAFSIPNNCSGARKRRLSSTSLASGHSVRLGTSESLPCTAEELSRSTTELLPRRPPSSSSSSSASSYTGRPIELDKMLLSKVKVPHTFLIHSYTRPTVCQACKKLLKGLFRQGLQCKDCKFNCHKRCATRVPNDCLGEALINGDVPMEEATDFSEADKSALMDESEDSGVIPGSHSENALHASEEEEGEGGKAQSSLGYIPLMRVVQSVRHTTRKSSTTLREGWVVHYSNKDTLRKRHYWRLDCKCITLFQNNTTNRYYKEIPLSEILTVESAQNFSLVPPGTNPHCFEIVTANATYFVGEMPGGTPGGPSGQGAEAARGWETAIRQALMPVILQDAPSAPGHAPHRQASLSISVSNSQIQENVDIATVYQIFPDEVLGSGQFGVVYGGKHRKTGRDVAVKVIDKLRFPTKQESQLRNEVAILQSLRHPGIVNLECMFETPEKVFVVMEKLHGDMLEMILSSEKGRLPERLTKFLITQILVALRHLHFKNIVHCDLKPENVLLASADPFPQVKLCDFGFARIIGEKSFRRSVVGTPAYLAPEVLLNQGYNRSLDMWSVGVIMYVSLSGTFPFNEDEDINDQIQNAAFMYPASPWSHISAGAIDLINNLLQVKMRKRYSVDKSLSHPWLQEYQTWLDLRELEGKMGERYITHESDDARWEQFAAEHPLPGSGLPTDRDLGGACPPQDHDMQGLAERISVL
Assay: PKD2 (Human Full Length) Enzyme Activity Assay (IMAP fluorescence polarisation)
Assay type: biochemical
Settings: stands directly after the PKD2 data (b743-b745); read-out: IC50, printed as PKD1 (Human Full Length) Enzyme Activity Assay
Procedure: Kinase Assay Reaction Buffer: This consisted of 0.22 μM filtered 25 mM HEPES and 10 mM MgCl2 pH 7.5.
Kinase: human full length PKD2 at ˜100 μg/mL was purchased from Upstate Ltd (Product code 14-506), and obtained from aliquots stored at −70° C. It was prepared with a final concentration of 0.1 μg/mL by diluting 1:300 in Reaction Buffer (30 μL per 9 mL-5 mL per plate with an additional 4 mL dead volume) and vortexing prior to use. It is necessary to check this concentration regularly in case of enzyme degradation.
Substrate: Fluorescein labelled glycogen synthase-derived peptide (FI)-KKLNRTLSVA (also known as MAPKAP K2 substrate) was obtained from Molecular Devices (Product code R7127). […]
5 μL Kinase/Substrate in Reaction Buffer was added to ‘test’ and all ‘control’ wells of a Corning black low binding 384 well (90 μL volume) microplate to give 0.1 μg/mL and 2 μM reaction concentration respectively. […] The fluorescence polarisation of the peptide substrate was measured using an analyst (Molecular devices) microplate reader with a single read at Ex485 Em535 (Analyst settings: Z Height 5 mm, G Factor 0.95, Reads/well 1, Integration 100000 μs, Gain Sensitivity 2).
Percentage inhibition was calculated based on activity of the test sample minus the average values in the blank wells relative to the average values measured in control wells minus the average values in the blank wells. […]

| Compound | IC50 [nM] |
| --- | --- |
| COc1cc(-c2cncc(-c3cccc(C(=O)NCCN(C)C)c3)n2)ccc1O [X-007, N-(2-Dimethylamino-ethyl)-3-[6-(4-hydroxy-3-methoxy-phenyl)-pyrazin-2-yl]-benzamide] | 420 |
| COc1cc(-c2cc(-c3cccc(C(=O)NCCN(C)C)c3)cnc2N)ccc1O [Y-059, 3-[6-Amino-5-(4-hydroxy-3-methoxy-phenyl)-pyridin-3-yl]-N-(2-dimethylamino-ethyl)-benzamide] | 32 |
